In ChEMBL document CHEMBL5223177, “Pyrazole Ureas as Low Dose, CNS Penetrant Glucosylceramide Synthase Inhibitors for the Treatment of Parkinson's Disease” (ACS Med Chem Lett, 2023):
Residue numbers refer to the chain shown, from its start. Converted amounts (≈) assume the structure as drawn.

How the values were obtained:
[1] = Unbound fraction in dog plasma; type: ADME, cell-free, Canis lupus familiaris
[2] = Lipophilicity, logD of compound by HPLC method; type: physicochemical
[3] = Intrinsic clearance in rat; type: ADME
Homo sapiens [4] = species on record: Homo sapiens; test: Inhibition of CYP2C9 (unknown origin) relative to control
Cytochrome P450 3A4 = Cytochrome P450 3A4 (Homo sapiens, UniProt P08684); test: Inhibition of CYP3A4 (unknown origin); type: ADME
Cytochrome P450 3A4, sequence (P08684 whole entry): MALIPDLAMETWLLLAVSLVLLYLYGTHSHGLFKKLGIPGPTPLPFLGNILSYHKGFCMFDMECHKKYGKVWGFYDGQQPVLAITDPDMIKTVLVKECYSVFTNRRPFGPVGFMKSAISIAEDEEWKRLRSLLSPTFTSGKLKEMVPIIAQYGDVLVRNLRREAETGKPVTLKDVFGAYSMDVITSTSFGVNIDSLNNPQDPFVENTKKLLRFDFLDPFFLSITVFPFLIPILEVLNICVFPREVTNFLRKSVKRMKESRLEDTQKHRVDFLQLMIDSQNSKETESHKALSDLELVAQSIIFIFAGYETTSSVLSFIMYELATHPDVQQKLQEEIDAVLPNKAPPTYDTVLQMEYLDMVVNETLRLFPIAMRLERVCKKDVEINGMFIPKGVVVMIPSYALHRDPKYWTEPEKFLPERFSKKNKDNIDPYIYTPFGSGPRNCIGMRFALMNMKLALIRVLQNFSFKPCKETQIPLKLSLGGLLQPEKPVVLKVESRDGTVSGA

[5] = Unbound fraction in rat plasma; type: ADME, cell-free
[6] = Intrinsic clearance in rat at 5 to 10 mg/kg, po or 0.05 to 2 mg/kg, iv; type: ADME, organism-based; conditions: in vivo, dose 5-10 mg/kg
[7] = Unbound volume of distribution at steady state in rat; type: ADME; conditions: in vivo
[8] = Solubility of compound at pH 2 by HPLC method; type: physicochemical; conditions: buffer
mouse BCRP (ABCG2) [9] = molecular target: T1, mouse BCRP (ABCG2) (Mus musculus, UniProt Q7TMS5); test: Substrate activity at mouse BCRP assessed as efflux ratio at 1 uM; type: ADME; conditions: not told
T1 sequence (Q7TMS5 whole entry): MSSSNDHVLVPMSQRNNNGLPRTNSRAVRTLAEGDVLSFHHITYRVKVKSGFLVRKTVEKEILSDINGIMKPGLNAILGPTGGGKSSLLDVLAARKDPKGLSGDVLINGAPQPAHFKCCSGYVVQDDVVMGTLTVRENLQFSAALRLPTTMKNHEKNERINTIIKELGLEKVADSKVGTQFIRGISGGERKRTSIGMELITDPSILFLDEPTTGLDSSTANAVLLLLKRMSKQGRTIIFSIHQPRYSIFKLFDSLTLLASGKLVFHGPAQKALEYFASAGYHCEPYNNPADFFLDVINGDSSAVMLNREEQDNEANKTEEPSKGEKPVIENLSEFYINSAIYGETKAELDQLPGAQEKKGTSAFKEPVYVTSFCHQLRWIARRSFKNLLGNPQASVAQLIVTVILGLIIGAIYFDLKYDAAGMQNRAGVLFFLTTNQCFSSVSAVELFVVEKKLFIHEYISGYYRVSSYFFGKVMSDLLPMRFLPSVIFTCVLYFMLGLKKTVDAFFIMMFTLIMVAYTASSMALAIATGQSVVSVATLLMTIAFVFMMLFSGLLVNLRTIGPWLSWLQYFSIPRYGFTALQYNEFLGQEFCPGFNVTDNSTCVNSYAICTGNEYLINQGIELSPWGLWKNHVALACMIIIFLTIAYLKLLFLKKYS

mouse BCRP (ABCG2) [10] = molecular target: T1, mouse BCRP (ABCG2); test: Substrate activity at mouse BCRP assessed as apparent permeability at 1 uM; type: ADME; conditions: not told
Cytochrome P450 2C9 = Cytochrome P450 2C9 (Homo sapiens, UniProt P11712); test: Inhibition of CYP2C9 (unknown origin); type: ADME
Cytochrome P450 2C9, sequence (P11712 whole entry): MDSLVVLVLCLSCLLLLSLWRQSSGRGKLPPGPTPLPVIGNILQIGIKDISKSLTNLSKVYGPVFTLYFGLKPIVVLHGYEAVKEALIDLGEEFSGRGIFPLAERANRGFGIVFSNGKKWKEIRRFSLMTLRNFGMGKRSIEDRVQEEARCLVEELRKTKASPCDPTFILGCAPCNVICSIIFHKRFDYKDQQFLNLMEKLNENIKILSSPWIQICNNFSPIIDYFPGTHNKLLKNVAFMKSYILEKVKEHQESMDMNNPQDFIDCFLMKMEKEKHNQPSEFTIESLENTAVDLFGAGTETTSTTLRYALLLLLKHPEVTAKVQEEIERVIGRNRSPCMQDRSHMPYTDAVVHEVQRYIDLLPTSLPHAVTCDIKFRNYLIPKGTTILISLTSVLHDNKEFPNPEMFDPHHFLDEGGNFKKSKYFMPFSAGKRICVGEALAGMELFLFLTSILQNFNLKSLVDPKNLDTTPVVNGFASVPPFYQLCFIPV

[11] = molecular target: T2, Ceramide glucosyltransferase (Mus musculus, UniProt O88693); test: Inhibition of GCS in mouse fibroblast; type: cell-based
T2 sequence (O88693 whole entry): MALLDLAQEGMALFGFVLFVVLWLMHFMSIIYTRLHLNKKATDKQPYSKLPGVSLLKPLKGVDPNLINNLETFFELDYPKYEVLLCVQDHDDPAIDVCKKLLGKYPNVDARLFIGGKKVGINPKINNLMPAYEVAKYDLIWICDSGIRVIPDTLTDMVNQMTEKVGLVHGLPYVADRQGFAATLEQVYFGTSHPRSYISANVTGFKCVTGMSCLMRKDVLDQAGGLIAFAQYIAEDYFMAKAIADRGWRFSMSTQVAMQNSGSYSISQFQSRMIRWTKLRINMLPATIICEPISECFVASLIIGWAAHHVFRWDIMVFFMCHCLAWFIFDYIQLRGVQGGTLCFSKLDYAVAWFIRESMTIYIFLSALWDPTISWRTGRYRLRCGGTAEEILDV

[12] = Clearance in dog; type: ADME, Canis lupus familiaris; conditions: in vivo
[13] = Solubility of compound at pH 7 by HPLC method; type: physicochemical; conditions: buffer
[14] = Clearance in rat; type: ADME; conditions: in vivo
[15] = Intrinsic clearance in dog; type: ADME, Canis lupus familiaris
rat P-gp = test: Substrate activity at rat P-gp assessed as efflux ratio at 1 uM; type: ADME; conditions: not told
[16] = molecular target: T3, 5-hydroxytryptamine receptor 3A (Homo sapiens, UniProt P46098); test: Antagonist activity at human 5HT3A expressed in HEK293 cells incubated for 1 hr by FLIPR assay; type: cell-based
T3 sequence (P46098 whole entry): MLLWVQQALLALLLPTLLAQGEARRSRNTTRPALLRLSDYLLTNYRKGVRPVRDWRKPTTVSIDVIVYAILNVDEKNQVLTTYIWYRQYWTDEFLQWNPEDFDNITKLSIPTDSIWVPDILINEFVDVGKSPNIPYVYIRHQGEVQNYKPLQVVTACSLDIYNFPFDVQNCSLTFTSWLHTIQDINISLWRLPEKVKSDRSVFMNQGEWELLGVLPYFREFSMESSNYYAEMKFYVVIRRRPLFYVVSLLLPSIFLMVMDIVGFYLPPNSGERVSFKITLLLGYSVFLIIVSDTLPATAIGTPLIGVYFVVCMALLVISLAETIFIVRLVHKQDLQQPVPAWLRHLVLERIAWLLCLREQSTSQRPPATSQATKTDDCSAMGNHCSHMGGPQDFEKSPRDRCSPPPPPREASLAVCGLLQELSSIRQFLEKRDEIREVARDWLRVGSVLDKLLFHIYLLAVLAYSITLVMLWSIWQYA

[17] = Bioavailability in rat at 5 to 10 mg/kg, po or 0.05 to 2 mg/kg, iv; type: ADME, organism-based; conditions: in vivo, dose 5-10 mg/kg
Cytochrome P450 2D6 = Cytochrome P450 2D6 (Homo sapiens, UniProt P10635); test: Inhibition of CYP2D6 (unknown origin); type: ADME
Cytochrome P450 2D6, sequence (P10635 whole entry): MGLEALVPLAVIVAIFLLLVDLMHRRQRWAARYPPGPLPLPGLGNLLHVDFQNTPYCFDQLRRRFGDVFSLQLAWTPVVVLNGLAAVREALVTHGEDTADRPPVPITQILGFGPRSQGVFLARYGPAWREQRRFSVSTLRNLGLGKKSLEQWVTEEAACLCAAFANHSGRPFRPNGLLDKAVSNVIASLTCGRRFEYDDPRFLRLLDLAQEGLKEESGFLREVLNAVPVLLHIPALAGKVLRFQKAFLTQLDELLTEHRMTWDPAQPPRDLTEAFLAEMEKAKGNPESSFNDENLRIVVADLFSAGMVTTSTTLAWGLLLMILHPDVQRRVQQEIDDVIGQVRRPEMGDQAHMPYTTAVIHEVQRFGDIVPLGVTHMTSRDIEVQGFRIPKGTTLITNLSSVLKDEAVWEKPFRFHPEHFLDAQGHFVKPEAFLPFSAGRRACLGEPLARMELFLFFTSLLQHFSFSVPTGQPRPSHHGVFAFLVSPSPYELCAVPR

[18] = molecular target: Voltage-gated inwardly rectifying potassium channel KCNH2 (Homo sapiens, UniProt Q12809); test: Inhibition of human ERG; type: toxicity
Voltage-gated inwardly rectifying potassium channel KCNH2, sequence (Q12809 whole entry): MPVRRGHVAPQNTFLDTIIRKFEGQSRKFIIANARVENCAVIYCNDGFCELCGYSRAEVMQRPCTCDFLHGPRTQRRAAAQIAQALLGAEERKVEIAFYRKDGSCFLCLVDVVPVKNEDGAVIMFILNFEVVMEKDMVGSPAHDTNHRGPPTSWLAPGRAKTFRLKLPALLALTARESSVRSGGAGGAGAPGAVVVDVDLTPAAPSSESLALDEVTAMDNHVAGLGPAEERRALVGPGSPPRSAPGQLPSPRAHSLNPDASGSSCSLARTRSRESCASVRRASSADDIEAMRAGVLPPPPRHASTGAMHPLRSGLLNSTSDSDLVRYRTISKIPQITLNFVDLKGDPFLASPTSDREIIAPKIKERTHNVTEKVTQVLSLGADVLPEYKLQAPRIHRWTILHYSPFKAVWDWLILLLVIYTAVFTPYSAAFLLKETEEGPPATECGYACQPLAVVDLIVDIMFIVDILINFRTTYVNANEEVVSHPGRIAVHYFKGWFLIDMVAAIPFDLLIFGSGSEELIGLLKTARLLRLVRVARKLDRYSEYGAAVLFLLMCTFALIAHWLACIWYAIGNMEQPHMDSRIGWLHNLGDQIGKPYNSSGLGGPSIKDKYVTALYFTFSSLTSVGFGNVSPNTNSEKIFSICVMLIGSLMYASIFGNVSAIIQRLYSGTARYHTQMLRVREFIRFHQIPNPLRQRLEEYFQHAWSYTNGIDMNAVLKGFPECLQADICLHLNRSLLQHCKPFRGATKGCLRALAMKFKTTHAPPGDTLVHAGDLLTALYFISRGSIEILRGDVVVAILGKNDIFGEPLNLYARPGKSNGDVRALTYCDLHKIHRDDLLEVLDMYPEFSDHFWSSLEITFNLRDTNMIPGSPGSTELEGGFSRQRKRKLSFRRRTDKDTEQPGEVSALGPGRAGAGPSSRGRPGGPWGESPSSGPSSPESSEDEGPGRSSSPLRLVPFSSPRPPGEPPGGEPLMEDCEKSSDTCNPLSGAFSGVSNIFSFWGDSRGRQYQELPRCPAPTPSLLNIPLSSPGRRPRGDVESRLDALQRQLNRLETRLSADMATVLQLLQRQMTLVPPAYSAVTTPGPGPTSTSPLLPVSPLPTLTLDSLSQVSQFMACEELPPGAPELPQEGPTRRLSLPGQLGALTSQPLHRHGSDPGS

Homo sapiens [19] = species on record: Homo sapiens; test: Selectivity ratio of IC50 for human 5HT3A to IC50 for GCS (unknown origin)
[20] = molecular target: T4, Ceramide glucosyltransferase (Homo sapiens, UniProt Q16739); test: Inhibition of GCS in human fibroblast; type: cell-based
T4 sequence (Q16739 whole entry): T2 sequence (O88693 whole entry) with Q8L, L13V, V20L, S29A, A131G, S196Y, S251A

[21] = Half life in rat; type: ADME; conditions: in vivo
[22] = Bioavailability in dog; type: ADME, organism-based, Canis lupus familiaris; conditions: in vivo

Cl.O=C(N1CCN2CCC1CC2)n1nc(-n2cc(C(F)(F)F)cn2)c2c1COCC2 gave a fraction unbound [1] of 0.27, a logD [2] of 2.5 and a CLint scaled [3] of 55 mL/min/kg. For the same molecule, the Emax (Homo sapiens [4]) was 26%, the IC50 (Cytochrome P450 3A4) was > 50 µM and the fraction unbound [5] was 0.08. The CL [6] was 55 mL/min/kg, the fVdss [7] was 16 L/kg and the solubility [8] was 174 µM. The efflux ratio at 1 µM (mouse BCRP (ABCG2) [9]) was 1.3, the Papp at 1 µM (mouse BCRP (ABCG2) [10]) was 31 ×10⁻⁶ cm/s and the IC50 (Cytochrome P450 2C9) was > 50 µM. It also gave an IC50 [11] of 17 nM, a clearance [12] of 12 mL/min/kg and a solubility [13] of 168 µM. It also gave a clearance [14] of 6.1 mL/min/kg, a CLint scaled [15] of 75 mL/min/kg and an efflux ratio at 1 µM (rat P-gp) of 4.6. The IC50 [16] was 1970 nM, the bioavailability [17] was 95% and the IC50 (Cytochrome P450 2D6) was > 50 µM. For the same molecule, the IC50 [18] was 4.1 µM, the Ratio IC50 (Homo sapiens [19]) was 1100 and the IC50 [20] was 32 nM. For the same molecule, the half-life [21] was 204 min and the bioavailability [22] was 48%.

For O=C(N1CCN2CCC1CC2)n1nc(-c2ccc(F)cc2)c2c1COCC2, the fraction unbound [1] was 0.3, the logD [2] was 2.2 and the CLint scaled [3] was 90 mL/min/kg. The Emax (Homo sapiens [4]) was 17%, the IC50 (Cytochrome P450 3A4) was > 50 µM and the fraction unbound [5] was 0.11. It also gave a CL [6] of 90 mL/min/kg, a fVdss [7] of 17 L/kg and a solubility [8] of 167 µM (≈ 61.9 µg/mL). The efflux ratio at 1 µM (mouse BCRP (ABCG2) [9]) was 1.4, the Papp at 1 µM (mouse BCRP (ABCG2) [10]) was 31 ×10⁻⁶ cm/s and the IC50 (Cytochrome P450 2C9) was > 50 µM. The IC50 [11] was 21 nM, the clearance [12] was 30 mL/min/kg and the solubility [13] was 170 µM (≈ 63 µg/mL). It also gave a clearance [14] of 8.5 mL/min/kg, a CLint scaled [15] of 6870 mL/min/kg and an efflux ratio at 1 µM (rat P-gp) of 3.4. The IC50 [16] was 224 nM, the bioavailability [17] was 73% and the IC50 (Cytochrome P450 2D6) was > 50 µM. It also gave an IC50 [18] of 2 µM, a Ratio IC50 (Homo sapiens [19]) of 64 and an IC50 [20] of 34 nM. For the same molecule, the half-life [21] was 168 min and the bioavailability [22] was 21%.
